This note sets out measurements from patent US11691962B2 (eXIthera Pharmaceuticals, Inc., priority 2018, dated 2023).

Chain of Factor XIa (P03951 388-625): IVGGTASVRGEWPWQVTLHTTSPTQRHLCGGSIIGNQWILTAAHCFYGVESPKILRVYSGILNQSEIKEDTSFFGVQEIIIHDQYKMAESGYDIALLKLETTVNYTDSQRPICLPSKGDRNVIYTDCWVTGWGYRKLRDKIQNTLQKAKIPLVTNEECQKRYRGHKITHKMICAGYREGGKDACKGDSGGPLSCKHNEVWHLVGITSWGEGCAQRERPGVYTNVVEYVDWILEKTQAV
Chain of Factor XIa (P03951 19-387 partner): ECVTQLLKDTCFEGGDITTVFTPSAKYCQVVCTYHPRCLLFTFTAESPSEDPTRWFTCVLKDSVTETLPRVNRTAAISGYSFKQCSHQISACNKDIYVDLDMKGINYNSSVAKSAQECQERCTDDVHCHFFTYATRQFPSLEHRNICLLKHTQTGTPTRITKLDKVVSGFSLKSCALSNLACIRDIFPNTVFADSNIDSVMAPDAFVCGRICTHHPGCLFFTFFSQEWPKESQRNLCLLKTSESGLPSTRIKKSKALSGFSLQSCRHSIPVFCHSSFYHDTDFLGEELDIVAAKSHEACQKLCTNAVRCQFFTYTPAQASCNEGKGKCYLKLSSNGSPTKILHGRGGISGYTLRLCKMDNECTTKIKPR

In this assay the target is Factor XIa (Homo sapiens (Human), UniProt P03951). As to the kind of experiment: Factor XIa enzyme inhibition assay (dose response, fluorogenic AMC substrate). The settings on record: read-out: hFXIa IC50. Type of assay: biochemical. Put shortly:
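Fluorogenic progress curves (30 min, 1-min reads, 30° C) were recorded for 0.25 nM FXIa cleaving 50 μM Glp-Pro-Arg-AMC in Hepes pH 7.4 buffer with NaCl and Tween 20. Compounds were serially two-fold diluted, and IC50 was fitted with a Hill equation.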
`CC[C@@H](NC(=O)N1C(=O)[C@H](Cc2cc(C)nc(N)c2)[C@H]1C(=O)N(C)c1ccn(C)n1)c1ccc(C)c(Cl)c1` [Compound 1-147, (2S,3R)-3-((2-amino-6-methylpyridin-4-yl)methyl)-N2-(1-methyl-1H-pyrazol-3-yl)-N1-((R)-1-(3-chloro-4-methylphenyl)propyl)-N2-methyl-4-oxoazetidine-1,2-dicarboxamide]: the IC50 was < 0.01 µM.
Regarding `CC[C@@H](NC(=O)N1C(=O)[C@H](Cc2cc(C)nc(N)c2)[C@H]1C(=O)N(C)C1=NCC(=O)N1C)c1ccccc1` [Compound 1-148, (2S,3R)-3-((2-amino-6-methylpyridin-4-yl)methyl)-N2-(5-oxo-1-methyl-4,5-dihydro-1H-imidazol-2-yl)-N1-((R)-1-phenylpropyl)-N2-methyl-4-oxoazetidine-1,2-dicarboxamide], the IC50 lay in the range of 0.1 to 1 µM.
On to `CC[C@@H](NC(=O)N1C(=O)[C@H](Cc2cc(C)nc(N)c2)[C@H]1C(=O)N(C)c1ccnn1C)c1cccc(C)c1C` [Compound 1-149, (2S,3R)-3-((2-amino-6-methylpyridin-4-yl)methyl)-N2-(1-methyl-1H-pyrazol-5-yl)-N1-((R)-1-(2,3-dimethylphenyl)propyl)-N2-methyl-4-oxoazetidine-1,2-dicarboxamide], for which the IC50 fell in the range of 0.01 to 0.1 µM.
Consider `CC[C@@H](NC(=O)N1C(=O)[C@H](Cc2cc(C)nc(N)c2)[C@H]1C(=O)N(C)c1ccnn1C)c1cccc(F)c1C` [Compound 1-150, (2S,3R)-3-((2-amino-6-methylpyridin-4-yl)methyl)-N2-(1-methyl-1H-pyrazol-5-yl)-N1-((R)-1-(3-fluoro-2-methylphenyl)propyl)-N2-methyl-4-oxoazetidine-1,2-dicarboxamide], for which the IC50 was < 0.01 µM.
Take `CC[C@@H](NC(=O)N1C(=O)[C@H](Cc2cc(C)nc(N)c2)[C@H]1C(=O)N(C)c1ccnn1C)c1ccc(F)c(C)c1` [Compound 1-153, (2S,3R)-3-((2-amino-6-methylpyridin-4-yl)methyl)-N2-(1-methyl-1H-pyrazol-5-yl)-N1-((R)-1-(4-fluoro-3-methylphenyl)propyl)-N2-methyl-4-oxoazetidine-1,2-dicarboxamide]: the IC50 is < 0.01 µM.
With `CC[C@@H](NC(=O)N1C(=O)[C@H](Cc2cc(C)nc(N)c2)[C@H]1C(=O)N(C)c1ccnn1C)c1ccc(C)cc1` [Compound 1-154, (2S,3R)-3-((2-amino-6-methylpyridin-4-yl)methyl)-N2-(1-methyl-1H-pyrazol-5-yl)-N1-((R)-1-(4-methylphenyl)propyl)-N2-methyl-4-oxoazetidine-1,2-dicarboxamide], the IC50 is < 0.01 µM.
To `CC[C@@H](NC(=O)N1C(=O)[C@H](Cc2cc(C)nc(N)c2)[C@H]1C(=O)N(C)c1ccnn1C)c1ccc(F)cc1` [Compound 1-156, (2S,3R)-3-((2-amino-6-methylpyridin-4-yl)methyl)-N2-(1-methyl-1H-pyrazol-5-yl)-N1-((R)-1-(4-fluorophenyl)propyl)-N2-methyl-4-oxoazetidine-1,2-dicarboxamide] belongs < 0.01 µM; to `CC[C@@H](NC(=O)N1C(=O)[C@H](Cc2cc(C)nc(N)c2)[C@H]1C(=O)N(C)c1ccnn1C)c1ccc(Cl)cc1` [Compound 1-157, (2S,3R)-3-((2-amino-6-methylpyridin-4-yl)methyl)-N2-(1-methyl-1H-pyrazol-5-yl)-N1-((R)-1-(4-chlorophenyl)propyl)-N2-methyl-4-oxoazetidine-1,2-dicarboxamide], 0.01 to 0.1 µM.
As to `CC[C@@H](NC(=O)N1C(=O)[C@H](Cc2cc(C)nc(N)c2)[C@H]1C(=O)N(C)c1ccnn1C)c1ccc(F)cc1C` [Compound 1-159, (2S,3R)-3-((2-amino-6-methylpyridin-4-yl)methyl)-N2-(1-methyl-1H-pyrazol-5-yl)-N1-((R)-1-(4-fluoro-2-methylhenyl)propyl)-N2-methyl-4-oxoazetidine-1,2-dicarboxamide], the half-inhibitory concentration (IC50) is < 0.01 µM.
For the compound `CC[C@@H](NC(=O)N1C(=O)[C@H](Cc2cc(C)nc(N)c2)[C@H]1C(=O)N(C)c1ccnn1C)c1ccc(C)cc1F` [Compound 1-160, (2S,3R)-3-((2-amino-6-methylpyridin-4-yl)methyl)-N2-(1-methyl-1H-pyrazol-5-yl)-N1-((R)-1-(2-fluoro-4-methylphenyl)propyl)-N2-methyl-4-oxoazetidine-1,2-dicarboxamide], the IC50 is < 0.01 µM.
As to `CC[C@@H](NC(=O)N1C(=O)[C@H](Cc2cc(C)nc(N)c2)[C@H]1C(=O)N(C)c1ccnn1C)c1ccc(C)cc1C` [Compound 1-161, (2S,3R)-3-((2-amino-6-methylpyridin-4-yl)methyl)-N2-(1-methyl-1H-pyrazol-5-yl)-N1-((R)-1-(2,4-dimethylphenyl)propyl)-N2-methyl-4-oxoazetidine-1,2-dicarboxamide], the IC50 was < 0.01 µM.
Regarding `CC[C@@H](NC(=O)N1C(=O)[C@H](Cc2cc(C)nc(N)c2)[C@H]1C(=O)N(C)c1ccnn1C)c1cc(C)ccc1F` [Compound 1-164, (2S,3R)-3-((2-amino-6-methylpyridin-4-yl)methyl)-N2-(1-methyl-1H-pyrazol-5-yl)-N1-((R)-1-(2-fluoro-5-methylphenyl)propyl)-N2-methyl-4-oxoazetidine-1,2-dicarboxamide], the IC50 is < 0.01 µM.
On to `CC[C@@H](NC(=O)N1C(=O)[C@H](Cc2ccnc(N)c2)[C@H]1C(=O)N(C)c1nncn1C)c1ccccc1` [Compound 1-165, (2S,3R)-3-((2-aminopyridin-4-yl)methyl)-N2-(4-methyl-4H-1,2,4-triazol-3-yl)-N1-((R)-1-phenylpropyl)-N2-methyl-4-oxoazetidine-1,2-dicarboxamide], for which the IC50 is 0.01 to 0.1 µM.
Turning to `CC[C@@H](NC(=O)N1C(=O)[C@H](Cc2cc(C)nc(N)c2)[C@H]1C(=O)N(C)c1ccnn1C)c1cc(C)ccc1C` [Compound 1-166, (2S,3R)-3-((2-amino-6-methylpyridin-4-yl)methyl)-N2-(1-methyl-1H-pyrazol-5-yl)-N1-((R)-1-(2,5-dimethylphenyl)propyl)-N2-methyl-4-oxoazetidine-1,2-dicarboxamide], the IC50 is < 0.01 µM.
The same measure for `CC[C@@H](NC(=O)N1C(=O)[C@H](Cc2ccnc(N)c2)[C@H]1C(=O)N(C)c1nnco1)c1ccccc1` [Compound 1-167, (2S,3R)-3-((2-aminopyridin-4-yl)methyl)-N2-(1,3,4-oxadiazol-2-yl)-N1-((R)-1-phenylpropyl)-N2-methyl-4-oxoazetidine-1,2-dicarboxamide]: < 0.01 µM; for `CC[C@@H](NC(=O)N1C(=O)[C@H](Cc2ccnc(N)c2)[C@H]1C(=O)N(C)c1nncs1)c1ccccc1` [Compound 1-168, (2S,3R)-3-((2-aminopyridin-4-yl)methyl)-N2-(1,3,4-thiadiazol-2-yl)-N1-((R)-1-phenylpropyl)-N2-methyl-4-oxoazetidine-1,2-dicarboxamide]: < 0.01 µM; for `CC[C@@H](NC(=O)N1C(=O)[C@H](Cc2cc(C)nc(N)c2)[C@H]1C(=O)N(C)c1cnn(C)c1)c1ccc(F)cc1` [Compound 1-169, (2S,3R)-3-((2-amino-6-methylpyridin-4-yl)methyl)-N2-(1-methyl-1H-pyrazol-4-yl)-N1-((R)-1-(4-fluorophenyl)propyl)-N2-methyl-4-oxoazetidine-1,2-dicarboxamide]: 0.01 to 0.1 µM.
The same measure for `CC[C@@H](NC(=O)N1C(=O)[C@H](Cc2cc(C)nc(N)c2)[C@H]1C(=O)N(C)c1cnn(C)c1)c1ccc(Cl)cc1` [Compound 1-170, (2S,3R)-3-((2-amino-6-methylpyridin-4-yl)methyl)-N2-(1-methyl-1H-pyrazol-4-yl)-N1-((R)-1-(4-chlorophenyl)propyl)-N2-methyl-4-oxoazetidine-1,2-dicarboxamide]: 0.01 to 0.1 µM; for `CC[C@@H](NC(=O)N1C(=O)[C@H](Cc2cc(C)nc(N)c2)[C@H]1C(=O)N(C)c1cnn(C)c1)c1ccc(F)c(C)c1` [Compound 1-171, (2S,3R)-3-((2-amino-6-methylpyridin-4-yl)methyl)-N2-(1-methyl-1H-pyrazol-4-yl)-N1-((R)-1-(4-fluoro-3-methylphenyl)propyl)-N2-methyl-4-oxoazetidine-1,2-dicarboxamide]: 0.01 to 0.1 µM; for `CC[C@@H](NC(=O)N1C(=O)[C@H](Cc2cc(C)nc(N)c2)[C@H]1C(=O)N(C)c1cnn(C)c1)c1ccc(C)c(F)c1` [Compound 1-172, (2S,3R)-3-((2-amino-6-methylpyridin-4-yl)methyl)-N2-(1-methyl-1H-pyrazol-4-yl)-N1-((R)-1-(3-fluoro-4-methylphenyl)propyl)-N2-methyl-4-oxoazetidine-1,2-dicarboxamide]: < 0.01 µM.
`CC[C@@H](NC(=O)N1C(=O)[C@H](Cc2cc(C)nc(N)c2)[C@H]1C(=O)N(C)c1cnn(C)c1)c1cccc(C)c1C` [Compound 1-173, (2S,3R)-3-((2-amino-6-methylpyridin-4-yl)methyl)-N2-(1-methyl-1H-pyrazol-4-yl)-N1-((R)-1-(2,3-dimethylphenyl)propyl)-N2-methyl-4-oxoazetidine-1,2-dicarboxamide]: the IC50 was 0.01 to 0.1 µM.
On to `CC[C@@H](NC(=O)N1C(=O)[C@H](Cc2cc(C)nc(N)c2)[C@H]1C(=O)N(C)c1cnn(C)c1)c1cccc(F)c1F` [Compound 1-174, (2S,3R)-3-((2-amino-6-methylpyridin-4-yl)methyl)-N2-(1-methyl-1H-pyrazol-4-yl)-N1-((R)-1-(2,3-difluorophenyl)propyl)-N2-methyl-4-oxoazetidine-1,2-dicarboxamide], for which the IC50 is 0.01 to 0.1 µM.
The same measure for `CC[C@@H](NC(=O)N1C(=O)[C@H](Cc2cc(C)nc(N)c2)[C@H]1C(=O)N(C)c1cnn(C)c1)c1ccc(C)c(C)c1` [Compound 1-175, (2S,3R)-3-((2-amino-6-methylpyridin-4-yl)methyl)-N2-(1-methyl-1H-pyrazol-4-yl)-N1-((R)-1-(3,4-dimethylphenyl)propyl)-N2-methyl-4-oxoazetidine-1,2-dicarboxamide]: < 0.01 µM.

What is called IC50 is the midpoint of a concentration-inhibition curve.
